Measurements from article PMC6328429, “Synthesis of a benzoxazinthione derivative of tanaproget and pharmacological evaluation for PET imaging of PR expression” (EJNMMI Radiopharmacy and Chemistry, 2019).

Tests used:
[1] = target: T1, progesterone receptor (PR) (Homo sapiens, UniProt P06401); experiment: T47D alkaline phosphatase (AP) potency assay; format: cell-based
T1 construct: endogenous in cells; host or cells: T47D breast carcinoma cells
T1 sequence (P06401 1-933): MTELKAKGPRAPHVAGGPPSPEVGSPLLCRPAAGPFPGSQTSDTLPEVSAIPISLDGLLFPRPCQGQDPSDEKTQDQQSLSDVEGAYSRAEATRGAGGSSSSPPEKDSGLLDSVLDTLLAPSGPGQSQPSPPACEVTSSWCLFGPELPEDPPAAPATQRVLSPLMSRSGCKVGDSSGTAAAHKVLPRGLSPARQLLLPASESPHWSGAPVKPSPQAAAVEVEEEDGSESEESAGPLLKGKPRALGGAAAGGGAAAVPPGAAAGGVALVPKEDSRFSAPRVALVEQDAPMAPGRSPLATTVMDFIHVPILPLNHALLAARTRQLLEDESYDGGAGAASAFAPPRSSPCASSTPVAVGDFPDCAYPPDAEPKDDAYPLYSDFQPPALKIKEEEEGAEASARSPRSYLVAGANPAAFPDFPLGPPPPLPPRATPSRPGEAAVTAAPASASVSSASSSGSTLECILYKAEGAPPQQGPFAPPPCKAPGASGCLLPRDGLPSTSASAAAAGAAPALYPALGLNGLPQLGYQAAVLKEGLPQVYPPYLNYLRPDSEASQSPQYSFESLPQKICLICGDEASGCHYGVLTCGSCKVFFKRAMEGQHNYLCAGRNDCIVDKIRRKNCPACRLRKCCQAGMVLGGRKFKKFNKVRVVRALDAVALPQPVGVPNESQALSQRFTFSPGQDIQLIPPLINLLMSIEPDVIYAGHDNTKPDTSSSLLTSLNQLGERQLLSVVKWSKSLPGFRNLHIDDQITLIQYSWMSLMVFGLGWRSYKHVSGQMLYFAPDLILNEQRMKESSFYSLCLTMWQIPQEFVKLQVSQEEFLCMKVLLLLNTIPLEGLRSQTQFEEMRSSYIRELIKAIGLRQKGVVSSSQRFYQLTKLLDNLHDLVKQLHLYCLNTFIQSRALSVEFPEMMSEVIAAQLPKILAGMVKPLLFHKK
Protocol: The method described by Di Lorenzo et al was followed with minor adaptation (Di Lorenzo et al., [1991]). In brief, T47D breast carcinoma cells were seeded in 96-well plates at 50,000 cell/well in RPMI medium supplemented with 10% FBS. After overnight culture, the medium was changed to RPMI phenol red free containing 2% charcoal-stripped FBS. After 24 h, the cells were treated with progesterone (Sigma Aldrich, Gillingham, UK) or the library compounds. Progesterone and the test compounds were dissolved in DMSO (100%) and diluted into treatment medium to give a final DMSO (v/v) concentration of 0.1%. After incubation (48 h) the treatment was finalised by twice washing the plates with PBS. Cells were lysed by two freeze-thaw cycles (− 80 °C). Cellular alkaline phosphatase activity was determined by adding Femto ELISA-AP substrate (200 μL) and optical density measurements taken at 5 and 10 min intervals at a wavelength of 405 nm. Data was interpreted using Graphpad Prism (GraphPad, CA, USA) using the model: dose-response simulation/inhibition, log(agonist/inhibition) vs. response – variable slope (four parameters). For compounds where EC50 > 10,000, an antagonist profile was assumed and the experiment was repeated with the inclusion of progesterone (3 mM) with the library compound. Data shown in the supporting information (Additional file 1: Figure S32).

[2] = In vitro non-radioactive metabolite analysis and clearance in HLM; format: in vitro ADME, human
Protocol: (§1) Microsomal incubations were performed using a Hamilton Microlab Star liquid handling workstation (Hamilton Robotics, Bonaduz, Switzerland). Test compound 2 (final concentration 1 or 10 μM, 1% DMSO) was pre-incubated at 37 °C for 10 min in MLM or HLM (final concentration 1 mg/ml prepared in 10 mM PBS). Reactions were initiated by the addition of NADPH (final concentration 1 mM). Aliquots were removed from each incubation and quenched in 3 volumes of ice-cold MeOH containing internal standard olomoucine (500 nM in MeOH) at − 1, 0, 5, 15, 30 and 60 min. Incubations were conducted in singlicate. […] Terminated incubations were centrifuged at 3700 rpm at 4 °C for 30 min and supernatant taken for analysis. Microsomal incubations were analysed by liquid chromatography-tandem mass spectrometry (LC-MS/MS). This consisted of a Dionex Ultimate 3000 UHPLC system coupled to a ThermoScientific Q Exactive Plus orbitrap mass spectrometer (Thermo Fisher Scientific Inc., Waltham, USA). Chromatographic separation was achieved using an Acquity UPLC HSS T3 column (1.8 μm, 100 × 2.1 mm) (Waters, Elstree, UK) at 50 °C and a binary mobile phase gradient at a flow rate of 0.4 ml/min. Initial LC conditions comprised 10% formic acid (0.1%) in water (A), 90% methanol (B). This was ramped to […] at 12 min. Sample analysis was by positive ion electrospray ionization. The capillary voltage was 3.5 kV. Full MS/dd-MS^2 (full MS scan followed by data dependent MS/MS) and Full MS/AIF (full MS scan followed by all ion fragmentation) workflows were used in combination. Full MS was performed at a resolution of 70,000, AGC target 1 e^6; dd-MS2 at a resolution of 17,5000, AGC target 1 e^5. LC-MS response (peak area of the analyte/peak area of internal standard) was fitted to a nonlinear single exponential model using software GraphPad Prism software (v6.07, GraphPad Software, Inc., La Jolla, USA). Elimination rate constant (k) was determined and intrinsic clearance, CLint, was calculated as CLint = (V.k)/mg protein where V is the incubation volume (μl) and mg protein is the mg microsomal protein in the incubation. Identification of metabolites in microsomal incubations and elucidation of their structures was undertaken with Compound Discoverer software (v2.0.0.303, Thermo Fisher Scientific Inc., Waltham, USA).

[3] = In vitro non-radioactive metabolite analysis and clearance in MLM; format: in vitro ADME, mouse
Protocol: as §1

EC50 ([1]; agonist response, 48 h incubation, average of at least n = 3 ± SD): 4.7 ± 0.07 nM
fold more potent than structural isomer 4 ([1]; compound 2 versus 4): ~1000 fold
Clearance, fold slower in HLM than in MLM ([2]; HLM versus MLM): ca. 22 fold
microsomal CLint ([2]; human, human liver microsomes, HLM 1 mg/ml, NADPH 1 mM, 37 °C): 56 µL/min/mg
microsomal CLint ([3]; mouse, mouse liver microsomes, MLM 1 mg/ml, NADPH 1 mM, 37 °C): 1270 µL/min/mg
SMILES: CC1(C)OC(=S)Nc2ccc(-c3cccnc3F)cc21 [Compound 2, 6-(2-fluoropyridin-3-yl)-4,4-dimethyl-1H-benzo[d][1,3]oxazine-2(4H)-thione]
Metabolite identification by mass spectrometry in HLM ([2]; HLM incubation, LC-MS/MS): conversion of the thiocarbamate into oxocarbamate as the major metabolic pathway and highlighted oxidative defluorination
Metabolite identification by mass spectrometry in MLM ([3]; MLM incubation, LC-MS/MS): conversion of the thiocarbamate into oxocarbamate as the major metabolic pathway and highlighted oxidative defluorination
